Key:
[1] = Rat acute gastroirritation assay; design: species or system rat (male Sprague Dawley); conditions: in vivo, po, gastric intubation, read-out: UD50
Procedure: The compounds of the invention are tested in the rat acute gastroirritation assay to examine their potential for causing gastric irritation when administered at doses exceeding the effective dose.
(§1) This assay is carried out as follows:
Male Sprague Dawley rats (190-220 g) are fasted for 18 hours prior to drug administration. Rats are divided into groups of 8 and coded (i.e., observer of gastric lesions is not aware of drug treatment). Drugs are dissolved or suspended in 0.5% Tween 80 and administered by gastric intubation in a volume of 1 ml/100 g body weight, control rats receiving only Tween 80. Four hours after drug administration, rats are evaluated by recording the incidence and severity of gastroirritation using the following scoring system: 0) No irritation or lesions; 1) irritation (redness); 2) ≤5 lesions (ulcers); and 3) >5 lesions. Dunnett's test (α=0.05) is used to calculate the mean ±SE of each test group and the statistical significance.

[2] = target: T1, LTD4 (isolated guinea pig trachea) (Cavia porcellus, UniProt Q2NNR5); test: In vitro isolated guinea pig trachea assay, LTD4 antagonist activity; design: species or system guinea pig (male Hartley); conditions: Table VII
T1 construct: the neck is opened and the trachea removed; from tissue; host or cells: tracheal rings of male Hartley guinea pigs
T1 sequence (Q2NNR5 1-340): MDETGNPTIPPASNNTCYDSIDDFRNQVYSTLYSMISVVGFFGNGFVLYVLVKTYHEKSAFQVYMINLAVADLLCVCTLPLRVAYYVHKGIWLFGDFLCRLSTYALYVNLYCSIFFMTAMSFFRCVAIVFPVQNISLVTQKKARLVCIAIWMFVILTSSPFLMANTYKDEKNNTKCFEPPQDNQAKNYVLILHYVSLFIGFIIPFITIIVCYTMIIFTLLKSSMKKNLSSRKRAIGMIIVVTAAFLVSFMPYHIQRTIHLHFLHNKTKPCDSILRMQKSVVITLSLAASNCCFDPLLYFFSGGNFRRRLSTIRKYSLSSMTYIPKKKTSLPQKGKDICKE
Procedure: The LTD4 antagonist activity of the compounds of the invention is assessed in the in vitro isolated guinea pig trachea assay. This assay is carried out as follows: Male Hartley guinea pigs (350-400 g) are euthanized by a blow to the head, the neck is opened and the trachea removed. The trachea is maintained in aerated physiological salt solution, cleared of connective tissue and fat and cut into rings approximately 2 mm in width (usually containing two cartilaginous segments per ring). Two pieces of silk suture are then passed through the lumen of the tracheal ring and are tied around the cartilage, one on each side of the trachealis muscle. […] The tracheal rings are maintained at 2 g resting tension and equilibrated for 45 minutes (with frequent washing and readjustment of resting tension). […] All responses to LTD4 in an individual tissue are measured as a percentage of the reference contraction of that tissue to carbachol. LTD4 antagonist activity is determined by comparison of the concentration response curves of LTD4 in the presence and absence of antagonist. Assessment of the relative rightward shift of the antagonist treated curve relative to the solvent (control) treated tissue is calculated as a concentration ratio (Eq. A) and used in subsequent calculations to derive an antagonist pKB value (Eqs B and C). […]

Bee Venom PLA2 = Bee Venom PLA2 (Apis mellifera, UniProt P00630); test: biochemical; conditions: read-out: % Inhibition at a concentration of 10 μM, Bee Venom
Chain of Bee Venom PLA2 (P00630 34-167 limits assumed): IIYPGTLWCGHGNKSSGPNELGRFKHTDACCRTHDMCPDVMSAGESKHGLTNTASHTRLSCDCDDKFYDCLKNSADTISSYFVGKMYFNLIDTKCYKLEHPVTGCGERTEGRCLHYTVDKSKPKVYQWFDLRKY

[3] = test system: Rat Peritonitis Fluid PLA2; test: In vitro isolated phospholipase A2 assay, rat peritonitis fluid PLA2; assay type: biochemical
LTC4 = test: In vivo murine zymosan peritonitis assay, LTC4 (lipoxygenase pathway); design: species or system mouse (male CD-1)
Procedure: The compounds of the invention are evaluated for their ability to inhibit the lipoxygenase and/or cyclooxygenase pathways of arachidonic acid metabolism in the in vivo murine zymosan peritonitis assay.
as §1
Male CD-1 mice (8 weeks old) are placed in plastic boxes in groups of six. Animals are injected with 1 ml i.p. of either 1% zymosan in pyrogen free 0.9% saline or saline (unstimulated control). Compounds are dosed orally 1 hour prior to zymosan injection. Twenty minutes after zymosan injection, the mice are asphyxiated by CO2 inhalation and the peritoneal cavity is lavaged with 2 ml ice cold Hanks Balanced Salt Solution (HBSS) without CaCl2, MgSO4 ·7H2 O and MgCL2 ·6H2 O. Peritoneal lavage fluid from each mouse is removed by syringe and placed in 5 ml plastic test tubes put on ice and volume is noted. Preparation of samples for evaluation by ELISA is as follows: Samples are centrifuged at 800×g for 15 minutes; 1 ml of the supernatant is added to 8 ml ice cold methanol and kept at -70° C. overnight to precipitate protein; and samples are then centrifuged at 800×g for 15 minutes, followed by a drying procedure in a Savant speed vac concentrator. The samples are reconstituted with 1 ml ice cold ELISA buffer and stored at -70° C. until assayed. The assay for eicosanoids (LTC4 and 6-keto-PGF1α) is performed according to conventional ELISA procedures.
Compounds to be tested orally are suspended in 0.5% Tween 80. Compounds to be tested intraperitoneally are suspended in 0.5% methylcellulose in 0.9% saline.
The total metabolite level in lavage fluid/mouse is calculated and the significance is determined by a one-way analysis of variance with LSD comparisons to control (p≤0.05). Drug effects are expressed as a percent change from control values.

| Structure (SMILES) | TD50 at 4 h [1] [mg/kg] | Kb [2] [nM] | inhibition at 10 µM (Bee Venom PLA2) [%] | % Inhibition at a concentration of 10 μM, Rat Peritonitis Fluid [3] [%] | % Inhibition LTC4 (LTC4; 50 mg/kg p.o.) [%] | % Inhibition LTC4 (LTC4; 100 mg/kg p.o.) [%] |
| --- | --- | --- | --- | --- | --- | --- |
| O=C(O)Cc1ccccc1Nc1c(Cl)cccc1Cl [diclofenac, reference compound] | 20 |  |  |  |  |  |
| O=C(O)Cc1cc(OCc2ccc3ccccc3n2)ccc1Nc1c(Cl)cccc1Cl [Example 2, 2-[(2,6-Dichlorophenyl)amino]-5-(2-quinolylmethoxy)benzene acetic acid] |  | 550 | 38.7 | 69.7 | 47 | 78 |
